Laboratory results as given in ChEMBL document CHEMBL1641601, “Design, synthesis, and testing of an 6-O-linked series of benzimidazole based inhibitors of CDK5/p25” (Bioorg Med Chem, 2011).

Biological target: Cyclin-dependent kinase 5/CDK5 activator 1 (Homo sapiens, UniProt Q00535)
Test: Inhibition of CDK5/P25 GST-fusion protein assessed as substrate histone H1 phosphorylation by scintillation counting
Type: protein-complex assay

Sequence of Cyclin-dependent kinase 5/CDK5 activator 1 (Q00535 whole entry, the tested form may be a part): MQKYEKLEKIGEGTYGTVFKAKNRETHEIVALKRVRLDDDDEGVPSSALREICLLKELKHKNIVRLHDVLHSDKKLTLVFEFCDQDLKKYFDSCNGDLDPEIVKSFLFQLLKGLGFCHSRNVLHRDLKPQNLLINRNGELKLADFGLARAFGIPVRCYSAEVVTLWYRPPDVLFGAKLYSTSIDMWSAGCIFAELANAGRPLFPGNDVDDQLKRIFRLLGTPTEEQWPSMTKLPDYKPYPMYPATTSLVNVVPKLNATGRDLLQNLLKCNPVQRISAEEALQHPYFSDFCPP
Sequence of Cyclin-dependent kinase 5/CDK5 activator 1 (Q15078 whole entry, further chain, the tested form may be a part): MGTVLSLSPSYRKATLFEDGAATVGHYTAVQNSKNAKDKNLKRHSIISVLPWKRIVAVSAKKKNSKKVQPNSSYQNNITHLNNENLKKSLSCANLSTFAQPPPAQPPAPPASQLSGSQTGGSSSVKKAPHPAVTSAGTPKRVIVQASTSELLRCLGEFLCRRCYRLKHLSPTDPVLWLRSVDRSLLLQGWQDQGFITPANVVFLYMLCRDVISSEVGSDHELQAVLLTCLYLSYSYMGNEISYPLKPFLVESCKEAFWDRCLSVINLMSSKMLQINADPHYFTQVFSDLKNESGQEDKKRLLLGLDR

CCC(CN(C)C)Oc1cc(NCc2ccccc2)c2ncn(C(C)C)c2c1 (configuration not stated) was tested, and the IC50 was over 100 µM.
Work on CCC(O)COc1cc(NCc2ccccc2)c2ncn(C(C)C)c2c1 (configuration not stated) yielded an IC50 of over 100 µM.
Compound CCCCOc1cc(NCc2ccccc2)c2ncn(C(C)C)c2c1 has an IC50 of over 100 µM.
COCCOc1cc(NCc2ccccc2)c2ncn(C(C)C)c2c1 gave an IC50 of over 100 µM.
Work on CCC(COC)Oc1cc(NCc2ccccc2)c2ncn(C(C)C)c2c1 (configuration not stated) yielded an IC50 of over 10 µM.
With CCC(CO)Oc1cc(NCc2ccccc2)c2ncn(C(C)C)c2c1 (configuration not stated) the IC50 was 13 µM.
COc1cc(NCc2ccccc2)c2ncn(C(C)C)c2c1 showed an IC50 of over 10 µM.
CCCOc1cc(NCc2ccccc2)c2ncn(C(C)C)c2c1 showed an IC50 of over 100 µM.
For CC(C)n1cnc2c(NCc3ccccc3)cc(OCC3CCNCC3)cc21, the IC50 was over 100 µM.
In the case of CCOc1cc(NCc2ccccc2)c2ncn(C(C)C)c2c1, the IC50 is reported as over 100 µM.
CC(C)n1cnc2c(NCc3ccccc3)cc(OCCO)cc21 was tested, and the IC50 was over 100 µM.
Work on CC(C)n1cnc2c(NCc3ccccc3)cc(OCC3CCN(C)CC3)cc21 yielded an IC50 of over 100 µM.
